Assays:
Human δ-opioid (DOP) = molecular target: T1, Human δ-opioid (DOP) (Homo sapiens, UniProt P41143); test: Radioligand binding, human δ-opioid (DOP) membranes, FlashPlate, [3H]-Bremazocine; settings: compound at 10 μM, [3H]-Bremazocine; for A1: inhibition of radioligand binding: human DOP membranes
T1 construct: purchased Perkin Elmer Biosignal
Outline: (§1)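 Cloned human receptor membranes were coated onto FlashPlate wells and incubated with radioligand and compound (added from a 0.5 mM DMSO daughter plate) for 1 hour at room temperature in the dark. Scintillation counting gave percent inhibition, with DMSO defining total and reference ligand defining non-specific binding.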

Human Melanocortin (MC3) = molecular target: T2, Human Melanocortin (MC3) (Homo sapiens, UniProt P41968); test: Radioligand binding, human melanocortin MC3 membranes, FlashPlate, [125I]-NDP-αMSH; settings: compound at 10 μM, [125I]-NDP-αMSH; for A3: inhibition of radioligand binding: human MC3 membranes
T2 construct: purchased Perkin Elmer Biosignal
T2 sequence (P41968 whole entry): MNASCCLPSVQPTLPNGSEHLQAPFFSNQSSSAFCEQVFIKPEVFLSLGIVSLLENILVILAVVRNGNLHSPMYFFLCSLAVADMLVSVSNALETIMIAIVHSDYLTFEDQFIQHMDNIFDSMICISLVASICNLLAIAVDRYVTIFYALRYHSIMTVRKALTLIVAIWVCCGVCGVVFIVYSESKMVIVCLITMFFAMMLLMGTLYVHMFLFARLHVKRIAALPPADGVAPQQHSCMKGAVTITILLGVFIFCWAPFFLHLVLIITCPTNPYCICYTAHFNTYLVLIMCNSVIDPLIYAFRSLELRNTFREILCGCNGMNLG
Outline: as §1

Human κ-Opioid (KOP) = molecular target: T3, Human κ-Opioid (KOP) (Homo sapiens, UniProt P41145); test: Radioligand binding, human κ-opioid (KOP) membranes, filtration, [3H]-Diprenorphine; settings: compound at 10 μM, [3H]-Diprenorphine; for A2: inhibition of radioligand binding: human KOP membranes
T3 construct: purchased Perkin Elmer Biosignal
T3 sequence (P41145 whole entry): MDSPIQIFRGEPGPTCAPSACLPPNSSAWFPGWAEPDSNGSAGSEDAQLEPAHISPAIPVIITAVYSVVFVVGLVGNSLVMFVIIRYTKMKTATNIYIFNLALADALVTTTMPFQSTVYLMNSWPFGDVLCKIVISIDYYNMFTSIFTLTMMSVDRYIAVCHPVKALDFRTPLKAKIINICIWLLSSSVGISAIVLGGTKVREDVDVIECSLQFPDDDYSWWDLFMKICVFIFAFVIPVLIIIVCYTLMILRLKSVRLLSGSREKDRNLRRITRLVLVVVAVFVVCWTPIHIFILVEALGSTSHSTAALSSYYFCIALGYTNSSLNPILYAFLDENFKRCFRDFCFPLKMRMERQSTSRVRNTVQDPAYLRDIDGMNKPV
Outline: (§2)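 Percent inhibition of radioligand binding measured on recombinant human membranes: NK1 with [125I]-Substance P, KOP with [3H]-Diprenorphine. Incubation 1 h at room temperature, then harvest onto 0.3% PEI-soaked filters, cold Tris-HCl pH 7.4 washes and scintillation counting; non-specific binding from reference ligand wells.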

Mouse urotensin (mUR2) = molecular target: T4, Mouse urotensin (mUR2) (Mus musculus, UniProt Q8VIH9); test: Radioligand binding, mouse urotensin mUR2 membranes, FlashPlate, [125I]-Urotensin II; settings: compound at 10 μM, [125I]-Urotensin II; for A11: inhibition of radioligand binding: mouse mUR2 membranes
T4 construct: purchased Perkin Elmer Biosignal
T4 sequence (Q8VIH9 1-385): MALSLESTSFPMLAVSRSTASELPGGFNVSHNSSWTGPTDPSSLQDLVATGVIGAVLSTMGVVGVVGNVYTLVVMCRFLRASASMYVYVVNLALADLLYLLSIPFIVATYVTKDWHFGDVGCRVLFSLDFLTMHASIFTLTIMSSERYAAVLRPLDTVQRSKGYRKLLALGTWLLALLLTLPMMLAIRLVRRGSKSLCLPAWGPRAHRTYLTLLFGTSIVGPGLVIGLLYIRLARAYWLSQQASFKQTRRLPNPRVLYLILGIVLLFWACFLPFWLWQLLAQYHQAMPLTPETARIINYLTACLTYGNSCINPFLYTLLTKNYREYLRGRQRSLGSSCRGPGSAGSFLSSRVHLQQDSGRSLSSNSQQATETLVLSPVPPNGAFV
Outline: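 Cloned mouse urotensin (mUR2) receptor membranes from Perkin Elmer Biosignal were immobilized in FlashPlate microplates using a proprietary coating. Each well got 19.5 μl buffer, then 0.5 μl of DMSO, reference ligand, or compound. Adding 5 μl of [125I]-Urotensin II, diluted to 5× final concentration in binding buffer, started binding. Plates were sealed with TopSeal-A and incubated 1 hour at room temperature in the dark. Wells were counted for 30 seconds each on a TopCount after a 60-second delay, and percentage inhibition was calculated.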

[1] = molecular target: T5, Human neuropeptide Y (NPY-Y1) (Homo sapiens, UniProt P25929); test: Radioligand binding, human neuropeptide Y NPY-Y1 membranes, FlashPlate, [125I]-PYY; settings: compound at 10 μM, [125I]-PYY; for A9: inhibition of radioligand binding: human NPY-Y1 membranes
T5 construct: purchased Perkin Elmer Biosignal
T5 sequence (P25929 1-384): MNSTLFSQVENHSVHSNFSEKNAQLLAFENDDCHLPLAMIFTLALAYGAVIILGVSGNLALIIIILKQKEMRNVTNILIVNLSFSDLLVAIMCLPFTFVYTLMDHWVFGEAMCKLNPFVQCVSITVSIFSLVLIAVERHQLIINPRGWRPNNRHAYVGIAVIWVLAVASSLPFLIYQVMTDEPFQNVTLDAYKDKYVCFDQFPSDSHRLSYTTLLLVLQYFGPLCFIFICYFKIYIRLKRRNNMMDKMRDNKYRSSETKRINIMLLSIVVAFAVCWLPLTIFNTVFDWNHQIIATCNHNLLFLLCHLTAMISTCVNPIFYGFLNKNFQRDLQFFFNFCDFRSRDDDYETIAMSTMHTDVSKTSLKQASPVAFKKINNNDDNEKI
Outline: as §1

Human neurokinin (NK1) = molecular target: T6, Human neurokinin (NK1) (Homo sapiens, UniProt P25103); test: Radioligand binding, human neurokinin NK1 membranes, filtration, [125I]-Substance P; settings: compound at 10 μM, [125I]-Substance P; for A8: inhibition of radioligand binding: human NK1 membranes
T6 construct: purchased Perkin Elmer Biosignal
T6 sequence (P25103 whole entry): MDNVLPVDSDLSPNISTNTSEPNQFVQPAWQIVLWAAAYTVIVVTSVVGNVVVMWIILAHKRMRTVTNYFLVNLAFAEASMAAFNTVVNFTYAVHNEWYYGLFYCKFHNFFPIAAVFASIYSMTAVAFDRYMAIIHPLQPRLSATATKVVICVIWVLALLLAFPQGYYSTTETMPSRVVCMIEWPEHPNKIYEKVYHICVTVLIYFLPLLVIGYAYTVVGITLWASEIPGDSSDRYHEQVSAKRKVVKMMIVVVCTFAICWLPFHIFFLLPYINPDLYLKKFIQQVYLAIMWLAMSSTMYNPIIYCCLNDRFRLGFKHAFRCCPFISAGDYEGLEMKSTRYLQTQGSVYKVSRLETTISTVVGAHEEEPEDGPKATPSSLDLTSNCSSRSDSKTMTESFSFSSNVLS
Outline: as §2

Human melanocortin (MC5) = molecular target: T7, Human melanocortin (MC5) (Homo sapiens, UniProt P33032); test: Radioligand binding, human melanocortin MC5 membranes, FlashPlate, [125I]-NDP-αMSH; settings: compound at 10 μM, [125I]-NDP-αMSH; for A5: inhibition of radioligand binding: human MC5 membranes
T7 construct: purchased Perkin Elmer Biosignal
T7 sequence (P33032 whole entry): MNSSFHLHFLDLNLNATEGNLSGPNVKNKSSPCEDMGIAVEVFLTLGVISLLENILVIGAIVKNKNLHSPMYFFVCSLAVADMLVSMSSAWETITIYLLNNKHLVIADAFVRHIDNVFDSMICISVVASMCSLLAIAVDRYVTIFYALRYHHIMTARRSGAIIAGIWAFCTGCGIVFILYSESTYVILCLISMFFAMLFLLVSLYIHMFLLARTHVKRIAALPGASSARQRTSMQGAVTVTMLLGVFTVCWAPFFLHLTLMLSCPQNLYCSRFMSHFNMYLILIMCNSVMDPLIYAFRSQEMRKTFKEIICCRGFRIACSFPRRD
Outline: as §1

[2] = molecular target: T8, Human melanin-concentrating hormone (MCH1) (Homo sapiens, UniProt Q99705); test: Radioligand binding, human melanin-concentrating hormone MCH1 membranes, FlashPlate, [125I]-S36057; settings: compound at 10 μM; for A6: inhibition of radioligand binding: [125I]-S36057, human MCH1 membranes
T8 construct: purchased Perkin Elmer Biosignal
T8 sequence (Q99705 whole entry): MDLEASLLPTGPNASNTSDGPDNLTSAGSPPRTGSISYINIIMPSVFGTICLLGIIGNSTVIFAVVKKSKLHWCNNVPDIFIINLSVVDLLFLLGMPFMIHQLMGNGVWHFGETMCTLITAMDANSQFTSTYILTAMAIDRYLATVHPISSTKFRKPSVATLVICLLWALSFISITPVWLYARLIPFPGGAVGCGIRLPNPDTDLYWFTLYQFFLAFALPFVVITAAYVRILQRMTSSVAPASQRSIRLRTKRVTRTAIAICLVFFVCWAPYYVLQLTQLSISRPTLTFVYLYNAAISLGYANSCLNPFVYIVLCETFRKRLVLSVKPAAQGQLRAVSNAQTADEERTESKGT
Outline: as §1

Human μ-opioid (MOP) = molecular target: T9, Human μ-opioid (MOP) (Homo sapiens, UniProt P35372); test: Radioligand binding, human μ-opioid (MOP) membranes, FlashPlate, [3H]-Naloxone; settings: compound at 10 μM, [3H]-Naloxone; for A7: inhibition of radioligand binding: human MOP membranes
T9 construct: purchased Perkin Elmer Biosignal
T9 sequence (P35372 whole entry): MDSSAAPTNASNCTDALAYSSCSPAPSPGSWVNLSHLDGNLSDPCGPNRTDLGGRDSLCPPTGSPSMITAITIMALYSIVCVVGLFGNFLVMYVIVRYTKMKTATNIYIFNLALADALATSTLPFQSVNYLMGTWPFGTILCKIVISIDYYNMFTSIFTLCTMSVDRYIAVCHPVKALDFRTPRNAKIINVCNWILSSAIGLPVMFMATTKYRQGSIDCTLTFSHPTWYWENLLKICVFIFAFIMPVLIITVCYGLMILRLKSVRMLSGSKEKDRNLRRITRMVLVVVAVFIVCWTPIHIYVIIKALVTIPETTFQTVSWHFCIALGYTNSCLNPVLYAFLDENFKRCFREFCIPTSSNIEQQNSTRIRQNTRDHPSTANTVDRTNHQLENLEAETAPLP
Outline: as §1

Human Melanocortin (MC4) = molecular target: T10, Human Melanocortin (MC4) (Homo sapiens, UniProt P32245); test: Radioligand binding, human melanocortin MC4 membranes, FlashPlate, [125I]-NDP-αMSH; settings: compound at 10 μM, [125I]-NDP-αMSH; for A4: inhibition of radioligand binding: human MC4 membranes
T10 construct: purchased Perkin Elmer Biosignal
T10 sequence (P32245 whole entry): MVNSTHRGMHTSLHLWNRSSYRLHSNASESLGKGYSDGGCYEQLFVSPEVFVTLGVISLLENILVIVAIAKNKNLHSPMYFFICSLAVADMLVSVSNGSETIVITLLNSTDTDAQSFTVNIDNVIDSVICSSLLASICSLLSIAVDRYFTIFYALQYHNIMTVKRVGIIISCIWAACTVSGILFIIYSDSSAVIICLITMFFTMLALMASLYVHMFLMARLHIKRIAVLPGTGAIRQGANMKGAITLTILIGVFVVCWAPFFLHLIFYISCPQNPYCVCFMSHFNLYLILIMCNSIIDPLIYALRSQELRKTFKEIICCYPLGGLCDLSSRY
Outline: as §1

Human opioid (ORL1) = molecular target: T11, Human opioid (ORL1) (Homo sapiens, UniProt P41146); test: Radioligand binding, human opioid ORL1 membranes, FlashPlate, [125I]-Nociceptin; settings: compound at 10 μM, [125I]-Nociceptin; for A10: inhibition of radioligand binding: human ORL1 membranes
T11 construct: purchased Perkin Elmer Biosignal
T11 sequence (P41146 whole entry): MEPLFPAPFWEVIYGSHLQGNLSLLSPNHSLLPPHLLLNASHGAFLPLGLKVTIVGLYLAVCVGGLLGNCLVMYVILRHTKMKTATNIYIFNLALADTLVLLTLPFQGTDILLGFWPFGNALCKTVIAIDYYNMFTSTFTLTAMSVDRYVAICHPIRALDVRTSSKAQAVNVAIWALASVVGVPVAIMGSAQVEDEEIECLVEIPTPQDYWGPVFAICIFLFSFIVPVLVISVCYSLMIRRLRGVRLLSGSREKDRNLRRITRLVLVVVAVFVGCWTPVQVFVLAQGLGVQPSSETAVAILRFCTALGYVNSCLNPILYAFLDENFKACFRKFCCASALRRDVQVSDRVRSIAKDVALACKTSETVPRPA
Outline: as §1

T1 sequence (P41143 whole entry): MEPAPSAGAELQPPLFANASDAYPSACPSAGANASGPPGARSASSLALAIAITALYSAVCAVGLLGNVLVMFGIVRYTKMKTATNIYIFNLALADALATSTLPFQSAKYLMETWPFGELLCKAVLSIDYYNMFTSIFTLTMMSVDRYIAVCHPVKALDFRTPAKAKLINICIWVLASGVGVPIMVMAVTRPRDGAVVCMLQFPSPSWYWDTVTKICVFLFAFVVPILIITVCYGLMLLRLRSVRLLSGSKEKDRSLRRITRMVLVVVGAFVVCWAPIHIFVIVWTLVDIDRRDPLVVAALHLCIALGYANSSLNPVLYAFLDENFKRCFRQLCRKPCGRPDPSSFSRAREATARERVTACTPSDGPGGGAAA

SMILES: NCCC(=O)NC1C(OCc2ccc3ccccc3c2)OC(COCc2ccccc2)C(O)C1OCc1ccc(Cl)cc1 (stereo not drawn) [compound 382]
- A1: inhibition of radioligand binding (Human δ-opioid (DOP)): − (“−” indicates less than 50% inhibition at 10 μM)
- A3: inhibition of radioligand binding (Human Melanocortin (MC3)): − (“−” indicates less than 50% inhibition at 10 μM)
- A2: inhibition of radioligand binding (Human κ-Opioid (KOP)): − (“−” indicates less than 50% inhibition at 10 μM)
- A11: inhibition of radioligand binding (Mouse urotensin (mUR2)): − (“−” indicates less than 50% inhibition at 10 μM)
- A9: inhibition of radioligand binding [1]: − (“−” indicates less than 50% inhibition at 10 μM)
- A8: inhibition of radioligand binding (Human neurokinin (NK1)): + (“+” indicates greater than 50% inhibition at 10 μM)
- A5: inhibition of radioligand binding (Human melanocortin (MC5)): + (“+” indicates greater than 50% inhibition at 10 μM)
- A6: inhibition of radioligand binding [2]: − (“−” indicates less than 50% inhibition at 10 μM)
- A7: inhibition of radioligand binding (Human μ-opioid (MOP)): − (“−” indicates less than 50% inhibition at 10 μM)
- A4: inhibition of radioligand binding (Human Melanocortin (MC4)): + (“+” indicates greater than 50% inhibition at 10 μM)
- A10: inhibition of radioligand binding (Human opioid (ORL1)): − (“−” indicates less than 50% inhibition at 10 μM)

SMILES: CO[C@H]1[C@H](O)[C@@H](COCc2ccc3ccccc3c2)OC(OCc2cccc(O)c2)[C@@H]1NC(=O)CCCN (stereo partly drawn) [compound 167]
- A1 radioligand binding, percentage inhibition (Human δ-opioid (DOP)): − (“−” indicates less than 50% inhibition at 10 μM)
- A3 radioligand binding, percentage inhibition (Human Melanocortin (MC3)): − (“−” indicates less than 50% inhibition at 10 μM)
- A2 radioligand binding, percentage inhibition (Human κ-Opioid (KOP)): − (“−” indicates less than 50% inhibition at 10 μM)
- A11 radioligand binding, percentage inhibition (Mouse urotensin (mUR2)): − (“−” indicates less than 50% inhibition at 10 μM)
- A9 radioligand binding, percentage inhibition [1]: − (“−” indicates less than 50% inhibition at 10 μM)
- A8 radioligand binding, percentage inhibition (Human neurokinin (NK1)): + (“+” indicates greater than 50% inhibition at 10 μM)
- A5 radioligand binding, percentage inhibition (Human melanocortin (MC5)): − (“−” indicates less than 50% inhibition at 10 μM)
- A6 radioligand binding, percentage inhibition ([2]; [125I]-S36057): − (“−” indicates less than 50% inhibition at 10 μM)
- A7 radioligand binding, percentage inhibition (Human μ-opioid (MOP)): − (“−” indicates less than 50% inhibition at 10 μM)
- A4 radioligand binding, percentage inhibition (Human Melanocortin (MC4)): − (“−” indicates less than 50% inhibition at 10 μM)
- A10 radioligand binding, percentage inhibition (Human opioid (ORL1)): − (“−” indicates less than 50% inhibition at 10 μM)

SMILES: NCCCC(=O)NC1C(OCc2ccc3ccccc3c2)OC(COCc2ccc(Cl)cc2)C(O)C1OCc1ccc(Cl)cc1 (stereo not drawn) [compound 392]
- A1: inhibition of radioligand binding (Human δ-opioid (DOP)): − (“−” indicates less than 50% inhibition at 10 μM)
- A3: inhibition of radioligand binding (Human Melanocortin (MC3)): + (“+” indicates greater than 50% inhibition at 10 μM)
- A2: inhibition of radioligand binding (Human κ-Opioid (KOP)): − (“−” indicates less than 50% inhibition at 10 μM)
- A11: inhibition of radioligand binding (Mouse urotensin (mUR2)): − (“−” indicates less than 50% inhibition at 10 μM)
- A9: inhibition of radioligand binding [1]: − (“−” indicates less than 50% inhibition at 10 μM)
- A8: inhibition of radioligand binding (Human neurokinin (NK1)): + (“+” indicates greater than 50% inhibition at 10 μM)
- A5: inhibition of radioligand binding (Human melanocortin (MC5)): + (“+” indicates greater than 50% inhibition at 10 μM)
- A6: inhibition of radioligand binding ([2]; 10 µM): − (“−” indicates less than 50% inhibition at 10 μM)
- A7: inhibition of radioligand binding (Human μ-opioid (MOP); 10 µM): − (“−” indicates less than 50% inhibition at 10 μM)
- A4: inhibition of radioligand binding (Human Melanocortin (MC4)): + (“+” indicates greater than 50% inhibition at 10 μM)
- A10: inhibition of radioligand binding (Human opioid (ORL1); 10 µM): − (“−” indicates less than 50% inhibition at 10 μM)
